In ChEMBL document CHEMBL4043169, “Discovery of potent and selective CDK8 inhibitors through FBDD approach” (Bioorg Med Chem Lett, 2017):

Assays:
[1] = target: CDK8/Cyclin C (Homo sapiens, UniProt P49336); test: Inhibition of recombinant full length His-tagged human CDK8/Cyclin C expressed in baculovirus expression system using Ulight-GS peptide as substrate after 30 mins in presence of ATP by TR-FRET assay
[2] = test system: AGS; test: Antiproliferative activity against human AGS cells after 72 hrs by MTT assay
[3] = Clearance in mouse at 5 mg/kg, iv; assay type: ADME, organism-based; conditions: in vivo
[4] = Cmax in mouse at 5 mg/kg, iv; assay type: ADME, organism-based; parameters: dose 5 mg/kg, route intravenous; conditions: in vivo
[5] = Cmax in mouse at 25 mg/kg, po; assay type: ADME, organism-based; parameters: dose 25 mg/kg, route oral; conditions: in vivo
[6] = Tmax in mouse at 25 mg/kg, po; assay type: ADME, organism-based; conditions: in vivo
[7] = Half life in mouse at 5 mg/kg, iv; assay type: ADME, organism-based; conditions: in vivo
[8] = Half life in mouse at 25 mg/kg, po; assay type: ADME, organism-based; conditions: in vivo
[9] = Volume of distribution at steady state in mouse at 5 mg/kg, iv; assay type: ADME, organism-based; conditions: in vivo, read-out: Vdss
[10] = Oral bioavailability in mouse at 25 mg/kg; assay type: ADME, organism-based; conditions: in vivo
[11] = target: Platelet-derived growth factor receptor alpha (Homo sapiens) (UniProt P16234); test: Inhibition of PDGFRalpha (unknown origin) at 1 uM relative to control
[12] = target: Vascular endothelial growth factor receptor 2 (Homo sapiens) (UniProt P35968); test: Inhibition of KDR (unknown origin) at 1 uM relative to control
[13] = target: Fibroblast growth factor receptor 1 (Homo sapiens) (UniProt P11362); test: Inhibition of FGFR1 (unknown origin) at 1 uM relative to control
[14] = target: Tyrosine-protein kinase JAK2 (Homo sapiens) (UniProt O60674); test: Inhibition of JAK2 (unknown origin) at 1 uM relative to control
[15] = organism: Homo sapiens; test: Inhibition of P70S6K (unknown origin) at 1 uM relative to control
[16] = target: Calcium/calmodulin-dependent protein kinase type IV (Homo sapiens) (UniProt Q16566); test: Inhibition of CAMK4 (unknown origin) at 1 uM relative to control
[17] = target: Angiopoietin-1 receptor (Homo sapiens) (UniProt Q02763); test: Inhibition of TIE2 (unknown origin) at 1 uM relative to control
[18] = target: Mast/stem cell growth factor receptor Kit (Homo sapiens) (UniProt P10721); test: Inhibition of cKIT (unknown origin) at 1 uM relative to control
[19] = target: Mitogen-activated protein kinase 14 (Homo sapiens) (UniProt Q16539); test: Inhibition of p38alpha (unknown origin) at 1 uM relative to control
[20] = target: Serine/threonine-protein kinase PAK 4 (Homo sapiens) (UniProt O96013); test: Inhibition of PAK4 (unknown origin) at 1 uM relative to control
[21] = target: Serine/threonine-protein kinase Sgk1 (Homo sapiens) (UniProt O00141); test: Inhibition of SGK (unknown origin) at 1 uM relative to control
[22] = target: Tyrosine-protein kinase ABL1 (Homo sapiens) (UniProt P00519); test: Inhibition of ABL (unknown origin) at 1 uM relative to control
[23] = target: Inhibitor of nuclear factor kappa-B kinase subunit beta (Homo sapiens) (UniProt O14920); test: Inhibition of IKKbeta (unknown origin) at 1 uM relative to control
[24] = target: Proto-oncogene tyrosine-protein kinase Src (Homo sapiens) (UniProt P12931); test: Inhibition of SRC (unknown origin) at 1 uM relative to control
[25] = target: Tyrosine-protein kinase Lck (Homo sapiens) (UniProt P06239); test: Inhibition of LCK (unknown origin) at 1 uM relative to control
[26] = target: Ephrin type-A receptor 1 (Homo sapiens) (UniProt P21709); test: Inhibition of EPHA1 (unknown origin) at 1 uM relative to control
[27] = target: ALK tyrosine kinase receptor (Homo sapiens) (UniProt Q9UM73); test: Inhibition of ALK (unknown origin) at 1 uM relative to control
[28] = target: Epidermal growth factor receptor (Homo sapiens) (UniProt P00533); test: Inhibition of EGFR (unknown origin) at 1 uM relative to control
[29] = target: RAC-alpha serine/threonine-protein kinase (Homo sapiens) (UniProt P31749); test: Inhibition of AKT1 (unknown origin) at 1 uM relative to control
[30] = target: Insulin-like growth factor 1 receptor (Homo sapiens) (UniProt P08069); test: Inhibition of IGF1R (unknown origin) at 1 uM relative to control
[31] = target: Ribosomal protein S6 kinase alpha-1 (Homo sapiens) (UniProt Q15418); test: Inhibition of RSK1 (unknown origin) at 1 uM relative to control
[32] = target: Ribosomal protein S6 kinase alpha-2 (Homo sapiens) (UniProt Q15349); test: Inhibition of RSK2 (unknown origin) at 1 uM relative to control
[33] = target: Ribosomal protein S6 kinase alpha-5 (Homo sapiens) (UniProt O75582); test: Inhibition of MSK1 (unknown origin) at 1 uM relative to control
[34] = target: Ribosomal protein S6 kinase alpha-4 (Homo sapiens) (UniProt O75676); test: Inhibition of MSK2 (unknown origin) at 1 uM relative to control
[35] = target: Serine/threonine-protein kinase pim-1 (Homo sapiens) (UniProt P11309); test: Inhibition of PIM1 (unknown origin) at 1 uM relative to control
[36] = target: Protein kinase C alpha type (Homo sapiens) (UniProt P17252); test: Inhibition of PKCalpha (unknown origin) at 1 uM relative to control
[37] = target: Rho-associated protein kinase 1 (Homo sapiens) (UniProt Q13464); test: Inhibition of ROCK1 (unknown origin) at 1 uM relative to control
[38] = target: Glycogen synthase kinase-3 beta (Homo sapiens) (UniProt P49841); test: Inhibition of Gsk3beta (unknown origin) at 1 uM relative to control
[39] = target: Mitogen-activated protein kinase 9 (Homo sapiens) (UniProt P45984); test: Inhibition of JNK2 (unknown origin) at 1 uM relative to control
[40] = target: Serine/threonine-protein kinase MARK1 (Homo sapiens) (UniProt Q9P0L2); test: Inhibition of MARK1 (unknown origin) at 1 uM relative to control
[41] = target: Serine/threonine-protein kinase 4 (Homo sapiens) (UniProt Q13043); test: Inhibition of MST1 (unknown origin) at 1 uM relative to control
[42] = target: Casein kinase I isoform delta (Homo sapiens) (UniProt P48730); test: Inhibition of CK1delta (unknown origin) at 1 uM relative to control
[43] = target: Aurora kinase B (Homo sapiens) (UniProt Q96GD4); test: Inhibition of AurB (unknown origin) at 1 uM relative to control
[44] = target: Aurora kinase A (Homo sapiens) (UniProt O14965); test: Inhibition of AurA (unknown origin) at 1 uM relative to control
[45] = target: 5'-AMP-activated protein kinase catalytic subunit alpha-1 (Homo sapiens) (UniProt Q13131); test: Inhibition of AMPKa1 (unknown origin) at 1 uM relative to control
[46] = target: Receptor-type tyrosine-protein kinase FLT3 (Homo sapiens) (UniProt P36888); test: Inhibition of FLT3 (unknown origin) at 1 uM relative to control
[47] = target: Hepatocyte growth factor receptor (Homo sapiens) (UniProt P08581); test: Inhibition of cMET (unknown origin) at 1 uM relative to control
[48] = target: Interleukin-1 receptor-associated kinase 1 (Homo sapiens) (UniProt P51617); test: Inhibition of IRAK1 (unknown origin) at 1 uM relative to control
[49] = target: Mitogen-activated protein kinase 3 (Homo sapiens) (UniProt P27361); test: Inhibition of ERK1 (unknown origin) at 1 uM relative to control
[50] = target: Receptor tyrosine-protein kinase erbB-2 (Homo sapiens) (UniProt P04626); test: Inhibition of HER2 (unknown origin) at 1 uM relative to control
[51] = target: Cyclin-dependent kinase 2 (Homo sapiens) (UniProt P24941); test: Inhibition of CDK2 (unknown origin) at 1 uM relative to control
[52] = target: Cyclin-dependent kinase 6 (Homo sapiens) (UniProt Q00534); test: Inhibition of CDK6 (unknown origin) at 1 uM relative to control
[53] = target: 3-phosphoinositide-dependent protein kinase 1 (Homo sapiens) (UniProt O15530); test: Inhibition of PDK1 (unknown origin) at 1 uM relative to control

Sequence of CDK8/Cyclin C (P49336 whole entry): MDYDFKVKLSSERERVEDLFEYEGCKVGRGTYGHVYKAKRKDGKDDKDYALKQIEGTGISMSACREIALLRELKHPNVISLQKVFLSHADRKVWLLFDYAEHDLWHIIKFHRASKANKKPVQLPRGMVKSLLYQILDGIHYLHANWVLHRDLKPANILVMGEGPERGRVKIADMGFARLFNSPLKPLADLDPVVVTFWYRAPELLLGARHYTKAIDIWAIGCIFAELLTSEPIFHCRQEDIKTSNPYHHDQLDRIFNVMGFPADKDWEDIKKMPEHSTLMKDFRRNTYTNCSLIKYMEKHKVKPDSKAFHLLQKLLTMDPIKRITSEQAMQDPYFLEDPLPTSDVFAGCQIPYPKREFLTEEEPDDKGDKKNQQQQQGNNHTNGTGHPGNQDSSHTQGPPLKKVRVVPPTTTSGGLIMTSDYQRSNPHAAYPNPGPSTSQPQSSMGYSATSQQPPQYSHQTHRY
Sequence of CDK8/Cyclin C (P24863 whole entry, further chain): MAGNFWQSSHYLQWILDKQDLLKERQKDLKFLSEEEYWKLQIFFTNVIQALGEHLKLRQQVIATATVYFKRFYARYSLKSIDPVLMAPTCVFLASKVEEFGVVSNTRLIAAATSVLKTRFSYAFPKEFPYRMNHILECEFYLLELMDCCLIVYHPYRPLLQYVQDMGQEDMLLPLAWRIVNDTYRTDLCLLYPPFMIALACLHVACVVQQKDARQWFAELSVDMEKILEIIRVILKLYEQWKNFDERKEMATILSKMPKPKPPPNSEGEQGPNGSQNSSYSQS
Sequence of Ephrin type-A receptor 1 (Homo sapiens) (P21709 whole entry): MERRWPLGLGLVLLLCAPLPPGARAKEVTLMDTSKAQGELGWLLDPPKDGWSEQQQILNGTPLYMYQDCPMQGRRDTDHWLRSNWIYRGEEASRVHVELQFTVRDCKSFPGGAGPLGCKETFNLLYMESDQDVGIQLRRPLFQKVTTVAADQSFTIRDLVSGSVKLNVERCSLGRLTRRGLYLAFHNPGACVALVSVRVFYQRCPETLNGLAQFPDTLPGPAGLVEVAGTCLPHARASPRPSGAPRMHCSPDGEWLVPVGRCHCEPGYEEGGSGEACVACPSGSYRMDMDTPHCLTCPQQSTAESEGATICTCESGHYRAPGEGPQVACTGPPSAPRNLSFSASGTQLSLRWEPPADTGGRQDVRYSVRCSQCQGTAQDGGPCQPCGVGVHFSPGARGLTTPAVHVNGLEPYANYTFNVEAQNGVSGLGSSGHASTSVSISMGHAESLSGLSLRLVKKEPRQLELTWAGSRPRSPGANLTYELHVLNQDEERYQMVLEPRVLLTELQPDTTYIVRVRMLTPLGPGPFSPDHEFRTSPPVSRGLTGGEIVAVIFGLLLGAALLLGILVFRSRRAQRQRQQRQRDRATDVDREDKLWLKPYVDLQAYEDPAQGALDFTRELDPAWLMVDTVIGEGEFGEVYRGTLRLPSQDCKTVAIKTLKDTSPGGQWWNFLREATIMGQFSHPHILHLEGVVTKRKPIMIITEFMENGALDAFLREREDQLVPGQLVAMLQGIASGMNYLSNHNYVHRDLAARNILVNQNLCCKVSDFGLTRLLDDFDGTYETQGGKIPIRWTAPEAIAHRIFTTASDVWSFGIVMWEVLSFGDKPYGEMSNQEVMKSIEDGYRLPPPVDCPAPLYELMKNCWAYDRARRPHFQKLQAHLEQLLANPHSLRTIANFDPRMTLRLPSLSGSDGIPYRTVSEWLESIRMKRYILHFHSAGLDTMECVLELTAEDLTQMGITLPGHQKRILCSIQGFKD
Sequence of ALK tyrosine kinase receptor (Homo sapiens) (Q9UM73 19-1620 limits assumed): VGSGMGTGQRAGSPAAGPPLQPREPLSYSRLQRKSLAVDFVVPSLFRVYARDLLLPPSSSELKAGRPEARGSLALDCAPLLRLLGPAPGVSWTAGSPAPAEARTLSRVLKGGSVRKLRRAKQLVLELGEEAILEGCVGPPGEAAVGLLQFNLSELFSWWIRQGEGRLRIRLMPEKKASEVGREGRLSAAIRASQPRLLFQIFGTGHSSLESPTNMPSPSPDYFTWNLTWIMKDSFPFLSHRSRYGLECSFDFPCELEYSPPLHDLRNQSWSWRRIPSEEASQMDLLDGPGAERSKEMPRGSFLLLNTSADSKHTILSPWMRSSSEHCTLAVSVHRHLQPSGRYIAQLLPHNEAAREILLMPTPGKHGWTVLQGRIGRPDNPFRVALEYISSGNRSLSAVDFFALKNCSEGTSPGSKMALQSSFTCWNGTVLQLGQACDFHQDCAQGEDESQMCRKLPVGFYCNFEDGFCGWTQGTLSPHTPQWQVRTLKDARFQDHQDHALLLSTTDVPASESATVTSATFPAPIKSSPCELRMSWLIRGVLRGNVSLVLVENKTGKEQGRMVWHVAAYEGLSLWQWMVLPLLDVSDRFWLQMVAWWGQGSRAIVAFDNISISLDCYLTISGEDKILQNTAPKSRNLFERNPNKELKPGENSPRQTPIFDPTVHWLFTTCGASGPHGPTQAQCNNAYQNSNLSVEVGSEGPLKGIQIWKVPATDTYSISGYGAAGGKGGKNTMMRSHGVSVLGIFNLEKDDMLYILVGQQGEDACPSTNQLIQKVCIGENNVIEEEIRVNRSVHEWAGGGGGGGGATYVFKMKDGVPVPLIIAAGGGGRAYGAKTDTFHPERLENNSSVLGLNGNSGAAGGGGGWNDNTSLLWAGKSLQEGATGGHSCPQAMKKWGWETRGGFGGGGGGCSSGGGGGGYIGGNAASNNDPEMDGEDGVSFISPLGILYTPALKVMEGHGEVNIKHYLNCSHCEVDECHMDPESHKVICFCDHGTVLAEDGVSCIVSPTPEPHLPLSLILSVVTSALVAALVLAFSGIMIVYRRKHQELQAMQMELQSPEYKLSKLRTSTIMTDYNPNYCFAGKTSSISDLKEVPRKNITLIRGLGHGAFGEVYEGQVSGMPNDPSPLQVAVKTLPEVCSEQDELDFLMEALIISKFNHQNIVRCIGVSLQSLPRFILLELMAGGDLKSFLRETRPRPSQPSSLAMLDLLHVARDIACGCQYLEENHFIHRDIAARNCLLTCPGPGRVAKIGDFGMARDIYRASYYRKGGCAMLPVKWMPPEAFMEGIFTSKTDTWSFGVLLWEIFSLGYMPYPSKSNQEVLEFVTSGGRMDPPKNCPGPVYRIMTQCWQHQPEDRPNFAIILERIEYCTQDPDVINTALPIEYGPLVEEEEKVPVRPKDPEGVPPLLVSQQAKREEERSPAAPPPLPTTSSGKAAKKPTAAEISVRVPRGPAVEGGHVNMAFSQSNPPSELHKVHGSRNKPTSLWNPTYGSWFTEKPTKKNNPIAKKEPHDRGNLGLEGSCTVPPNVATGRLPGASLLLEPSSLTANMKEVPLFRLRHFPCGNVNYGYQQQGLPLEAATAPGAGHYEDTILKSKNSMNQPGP
Sequence of RAC-alpha serine/threonine-protein kinase (Homo sapiens) (P31749 whole entry): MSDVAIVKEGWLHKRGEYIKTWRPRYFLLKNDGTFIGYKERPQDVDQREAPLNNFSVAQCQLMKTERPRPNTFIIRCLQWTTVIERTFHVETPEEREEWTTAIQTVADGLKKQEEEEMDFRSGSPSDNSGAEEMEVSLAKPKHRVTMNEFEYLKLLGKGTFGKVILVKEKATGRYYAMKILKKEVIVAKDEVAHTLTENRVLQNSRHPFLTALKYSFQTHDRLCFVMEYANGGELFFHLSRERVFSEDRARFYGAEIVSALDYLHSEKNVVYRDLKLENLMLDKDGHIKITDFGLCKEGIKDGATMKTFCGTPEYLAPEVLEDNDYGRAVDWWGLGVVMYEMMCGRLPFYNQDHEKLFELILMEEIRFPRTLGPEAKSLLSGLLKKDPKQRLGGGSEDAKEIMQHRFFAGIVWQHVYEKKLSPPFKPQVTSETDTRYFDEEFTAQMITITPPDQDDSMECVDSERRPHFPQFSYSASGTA
Sequence of Aurora kinase A (Homo sapiens) (O14965 whole entry): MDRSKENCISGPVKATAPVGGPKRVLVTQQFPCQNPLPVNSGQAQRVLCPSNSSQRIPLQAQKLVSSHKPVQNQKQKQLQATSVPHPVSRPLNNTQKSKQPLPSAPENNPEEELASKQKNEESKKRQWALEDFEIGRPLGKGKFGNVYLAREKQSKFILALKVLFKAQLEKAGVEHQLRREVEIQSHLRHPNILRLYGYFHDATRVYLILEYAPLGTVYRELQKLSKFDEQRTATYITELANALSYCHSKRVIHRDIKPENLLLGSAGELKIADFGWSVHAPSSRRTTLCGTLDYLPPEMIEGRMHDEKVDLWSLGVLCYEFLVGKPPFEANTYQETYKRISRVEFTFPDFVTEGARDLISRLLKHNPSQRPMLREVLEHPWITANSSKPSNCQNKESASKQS

Cc1cc(-c2c[nH]c(C(N)=O)c2)ccn1
IC50 [1]: 0.48 µM

NC(=O)c1[nH]cc(-c2ccncc2)c1C(F)(F)F
IC50 [2]: 0.27 µM
IC50 [1]: 0.003 µM
clearance [3]: 0.532 L/h/kg
Cmax [4]: 9.94 µg/mL
Cmax [5]: 12.7 µg/mL
Tmax [6]: 15 min
half-life [7]: 50.4 min
half-life [8]: 475 min
Vd [9]: 0.49 L/kg
bioavailability [10]: 57.5%

Cc1c(-c2ccncc2)c[nH]c1C(N)=O
IC50 [2]: 0.8 µM
IC50 [1]: 0.008 µM
inhibition [11]: < 20%
inhibition [12]: < 20%
inhibition [13]: < 20%
inhibition [14]: < 20%
inhibition [15]: < 20%
inhibition [16]: < 20%
inhibition [17]: < 20%
inhibition [18]: < 20%
inhibition [19]: < 20%
inhibition [20]: < 20%
inhibition [21]: < 20%
inhibition [22]: < 20%
inhibition [23]: < 20%
inhibition [24]: < 20%
inhibition [25]: < 20%
inhibition [26]: < 20%
inhibition [27]: < 20%
inhibition [28]: < 20%
inhibition [29]: < 20%
inhibition [30]: < 20%
inhibition [31]: < 20%
inhibition [32]: < 20%
inhibition [33]: < 20%
inhibition [34]: < 20%
inhibition [35]: < 20%
inhibition [36]: < 20%
inhibition [37]: < 20%
inhibition [38]: < 20%
inhibition [39]: < 20%
inhibition [40]: < 20%
inhibition [41]: < 20%
inhibition [42]: < 20%
inhibition [43]: < 20%
inhibition [44]: < 20%
inhibition [45]: < 20%
inhibition [46]: < 20%
inhibition [47]: < 20%
inhibition [48]: < 20%
inhibition [49]: < 20%
inhibition [50]: < 20%
inhibition [51]: < 20%
inhibition [52]: < 20%
inhibition [53]: < 20%

CCc1cnccc1-c1c[nH]c(C#N)c1
IC50 [1]: 4.63 µM

Cn1cc(-c2ccncc2)cc1C(N)=O
IC50 [1]: 4.95 µM

Cc1[nH]c(C(N)=O)cc1-c1ccncc1
IC50 [1]: 0.24 µM

NC(=O)c1cc(-c2ccncc2)c(Cl)[nH]1
IC50 [1]: 0.16 µM

NC(=O)c1cc(-c2ccncc2)cn1Cc1ccccc1
IC50 [1]: 0.17 µM

CNC(=O)c1cc(-c2ccncc2)c[nH]1
IC50 [1]: 0.41 µM

NC(=O)c1cc(-c2ccnc(Cl)c2)c[nH]1
IC50 [1]: 0.35 µM

Cc1cc(-c2c[nH]c(C(N)=O)c2C)ccn1
IC50 [1]: 0.019 µM

Cc1cnccc1-c1c[nH]c(C(N)=O)c1C
IC50 [2]: 1.17 µM
IC50 [1]: 0.01 µM

NC(=O)c1[nH]cc(-c2ccncc2)c1Cl
IC50 [2]: 0.37 µM
IC50 [1]: 0.005 µM

NC(=O)c1cc(-c2ccncc2)c[nH]1
IC50 [1]: 0.17 µM

CCc1c(-c2ccncc2)c[nH]c1C(N)=O
IC50 [2]: 1.12 µM
IC50 [1]: 0.013 µM

Cc1cnccc1-c1c[nH]c(C(N)=O)c1
IC50 [1]: 0.087 µM

NC(=O)c1cc(-c2ccncc2Br)c[nH]1
IC50 [1]: 0.037 µM

N#Cc1cc(-c2ccncc2)c[nH]1
IC50 [1]: 0.28 µM

NC(=O)c1cc(-c2ccncc2Cl)c[nH]1
IC50 [1]: 0.019 µM
